What was measured:
Assay type in all cases: cell-based
Set-up in all cases: key: 5: five indicated growth equal to the water control; 1: a rating of one indicated the complete absence of growth; Index values two (2) through four (4) represent intermediate levels of sporulation and growth; 3: Index values two (2) through four (4) represent intermediate levels of sporulation and growth; Index values two (2) through four (4) represent intermediate levels of sporulation and growth; zero (0) indicates a failed or unnecessary test
Settings in all cases: chemical control, all independent replicated tests
[1] = system: Monilinuafructicola; assay: agar overlay plant pathogen growth assay, MONF
Experimental: (§1) The novel Streptomyces galbus strain was grown for testing against plant pathogens in the following manner. The isolated microbe was initially fermented in three distinct actinomycete cultivation media. Media 38 was composed of 2 g/L tomato paste, 2 g/L oat flour, and 1.0 g/L sea salts. Media 31 was composed of 45 g/L oat flour, 2 g/L yeast extract, 6 g/L KH2PO4, and 4.8 g/L Na2HPO4, pH 7. Media 6 was composed of 20 g/L soluble starch, 10 g/L dextrose, 5 g/L yeast extract, 5 g/L N-Z amineA, and 1 g/L CaCO3.
(§2) The microbe was picked from tomato-oat flour agar (2 g/L tomato paste, 2 g/L oat flour, and 20 g/L agar) and introduced to 50 ml conical tubes containing 12 ml of sterile fermentation media capped with a foam plug. The inoculated tubes were incubated at 27±3° C., in an orbital shaker for six days. […]
(§3) The following pathogen/chemical pairs were tested: Alternaria brassisicola (ABRA Benomyl), Botrytris cinerea (BOTC/Benomyl), Monilinuafructicola (MONF/Benomyl), Phytophthora capsici (PCAP/Metalaxyl), Pseudomonas syringae (PSTO/Gentamycin), and Colletotrichum coccoides (COLC/Chlorothalonil). […] The chemical controls scored index ratings of one (1) in all of the independent replicated tests; and media blanks had ratings of five (5).

[2] = system: Botrytris cinerea; assay: agar overlay plant pathogen growth assay, BOTC
Experimental: as §1, §2, §3

[3] = system: Alternaria brassisicola; assay: agar overlay plant pathogen growth assay, ABRA
Experimental: as §1, §2, §3

[4] = system: Phytophthora capsici; assay: agar overlay plant pathogen growth assay, PCAP
Experimental: as §1, §2, §3

[5] = system: Colletotrichum coccoides; assay: agar overlay plant pathogen growth assay, COLC
Experimental: as §1, §2, §3

[6] = system: Pseudomonas syringae; assay: agar overlay plant pathogen growth assay, PSTO
Experimental: as §1, §2, §3

Molecule: CCCCNC(=O)n1c(NC(=O)OC)nc2ccccc21 [Benomyl]
- MONF pathogen growth index rating [1]: 1
- BOTC pathogen growth index rating [2]: 1
- ABRA pathogen growth index rating [3]: 1

Molecule: COCC(=O)N(c1c(C)cccc1C)C(C)C(=O)OC (stereo not drawn) [Metalaxyl]
- PCAP pathogen growth index rating [4]: 1

Molecule: N#Cc1c(Cl)c(Cl)c(Cl)c(C#N)c1Cl [Chlorothalonil]
- COLC pathogen growth index rating [5]: 1

Molecule: Gentamycin
- PSTO pathogen growth index rating [6]: 1
